Measurements reported in the CheMixHub viscosity set.
“And” between values parts separate entries of the source, which are not always exact repeats. Equal values may be shown once. ± gives the uncertainty stated by the source.

What was measured:
[1] = xn = mol fraction of the nth substance listed

FC(F)Cl
101 kPa
Details	viscosity [mPa·s]
293.25 K	0.1758 ± 0.0048
313.35 K	0.1381 ± 0.0038

O=CC(Cl)(Cl)Cl
viscosity
Details	298.15 K	308.15 K	313.15 K	318.15 K	323.15 K
101 kPa	1.055 ± 0.044 mPa·s and 1.055 ± 0.01 mPa·s (2×)	0.9017 ± 0.0089 mPa·s	1.009 ± 0.027 mPa·s and 0.8411 ± 0.022 mPa·s	0.934 ± 0.025 mPa·s	0.764 ± 0.032 mPa·s and 0.7641 ± 0.0076 mPa·s and 0.869 ± 0.023 mPa·s
101.33 kPa	1.055 ± 0.014 mPa·s	–	–	–	0.7641 ± 0.01 mPa·s

O=C(O)CCl
Details	viscosity [mPa·s]
323.15 K, 101 kPa	3.091 ± 0.03

OCC(F)(F)C(F)(F)F
100 kPa
Details	viscosity [mPa·s]
298.15 K	3.367 ± 0.069
323.15 K	1.518 ± 0.032

CCCCCCCCCCCCCCCC + CCCCCC
[1]
Details	viscosity [mPa·s]
298.09 K, 100 kPa, x1 = 0.8	2.236 ± 0.091
298.12 K, 100 kPa, x1 = 0.4	0.991 ± 0.04
298.15 K, 100 kPa, x1 = 0.6	1.518 ± 0.062
298.15 K, 101 kPa, x1 = 0.1995	0.6062 ± 0.051
298.15 K, 101 kPa, x1 = 0.3978	1.017 ± 0.11
298.15 K, 101 kPa, x1 = 0.5746	1.453 ± 0.18
298.15 K, 101 kPa, x1 = 0.8011	2.209 ± 0.34
298.15 K, 101.33 kPa, x2 = 0.1046	2.659 ± 0.032
298.15 K, 101.33 kPa, x2 = 0.1966	2.25 ± 0.027
298.15 K, 101.33 kPa, x2 = 0.3	1.88 ± 0.023
298.15 K, 101.33 kPa, x2 = 0.4037	1.547 ± 0.019
298.15 K, 101.33 kPa, x2 = 0.5142	1.214 ± 0.015
298.15 K, 101.33 kPa, x2 = 0.6072	0.987 ± 0.013
298.15 K, 101.33 kPa, x2 = 0.7062	0.7626 ± 0.01
298.15 K, 101.33 kPa, x2 = 0.8048	0.58 ± 0.0081
298.15 K, 101.33 kPa, x2 = 0.9026	0.4277 ± 0.0064
298.19 K, 101 kPa, x2 = 0.1987	2.235 ± 0.026
298.19 K, 101 kPa, x2 = 0.3772	1.607 ± 0.019
298.19 K, 101 kPa, x2 = 0.5983	1.001 ± 0.012
298.19 K, 101 kPa, x2 = 0.7982	0.5933 ± 0.0074
298.22 K, 100 kPa, x1 = 0.2	0.584 ± 0.024
318.26 K, 101 kPa, x2 = 0.1976	1.534 ± 0.018
318.26 K, 101 kPa, x2 = 0.3758	1.155 ± 0.014
318.26 K, 101 kPa, x2 = 0.5971	0.7591 ± 0.0093
318.26 K, 101 kPa, x2 = 0.7975	0.4712 ± 0.006
323.13 K, 100 kPa, x1 = 0.6	1.028 ± 0.042

CCn1cc[n+](C)c1.C[C@H](N)C(=O)[O-]
101 kPa
Details	viscosity [mPa·s]
308.15 K	137.5 ± 6.2
313.15 K	103.5 ± 4.1

O=CC(Cl)(Cl)Cl + CCCC(C)=O
viscosity [mPa·s], [1], 101 kPa
Details	x1 = 0.1199	x1 = 0.2489	x1 = 0.3714	x1 = 0.5058	x1 = 0.6071	x1 = 0.7288	x1 = 0.8116	x1 = 0.9001
298.15 K	0.524 ± 0.0054	0.595 ± 0.0061	0.6722 ± 0.0067	0.7399 ± 0.0074	0.8153 ± 0.008	0.8727 ± 0.0085	0.9343 ± 0.0091	0.9935 ± 0.0096
323.15 K	0.4084 ± 0.0044	0.458 ± 0.0049	0.5112 ± 0.0053	0.5571 ± 0.0058	0.6 ± 0.0062	0.6402 ± 0.0065	0.6822 ± 0.0069	0.7258 ± 0.0073
